In article PMC8284440, “Toward New Transmission-Blocking Combination Therapies: Pharmacokinetics of 10-Amino-Artemisinins and 11-Aza-Artemisinin and Comparison with Dihydroartemisinin and Artemether” (Antimicrobial Agents and Chemotherapy, 2021):

Assay: Metabolic stability in rat liver microsomes
Format: in vitro ADME
Set-up: half-life / CLint scaled: dose or concentration left out as unconfirmed
Conditions: not given
Protocol: (§1) (ii) Metabolic stability in liver microsomes. The metabolic stability assay was performed in duplicate using 96-deepwell plates. Each compound (0.4 mM) was incubated individually in mouse, rat, and pooled human liver microsomes (0.4 mg/ml) at 37°C in the presence and absence of the cofactor NADPH (1 mM). An aliquot was taken at 0, 5, 10, 30, and 60 min, and the reaction was quenched by adding 300 μl of ice-cold acetonitrile containing the internal standard carbamazepine (0.0236 μg/ml) ([88]). The test compounds in the supernatant were analyzed by means of LC-MS/MS as described in “Sample analysis” below. The normalized data for each sample were used to calculate the in vitro half-life, intrinsic clearance rate, and hepatic extraction ratio from the results of this assay using the following equations ([88]).Equation 1. Normalized area. (1) Normalized area=(Peak area of sample at time point/Peak area of internal standard) Equation 2. Percent parent remaining. (2) % Parent=Normalized peak area of sample at time point/Normalized peak area of sample at t=0×100 Equation 3. Calculated t1/2. (3) t1/2=−0.693/λ where λ is the slope of the ln (% parent remaining) versus time curve of the compound.Equation 4. CLint. (4) CLint=[0.693/t1/2(min)]×[Volume of incubation (μl)/Microsomal protein (μg)] Equation 5. Hepatic extraction ratio. (5) EH=fu×CLint/QH + fu×CLint
(§2) Sample extraction. […] The organic layer was then transferred and evaporated under a gentle stream of nitrogen at room temperature for 30 min. The dried samples were reconstituted in mobile phase, and a 5 μl sample was injected for LC-MS/MS analysis. The only exception was the arylurea 10, for which no liquid-liquid extraction was conducted; instead, the 200 μl acetonitrile solution was evaporated under a gentle stream of nitrogen at room temperature. The dried sample was reconstituted in the mobile phase, and a 5 μl sample was injected for LC-MS/MS analysis. The plasma samples for each compound from the in vivo studies were extracted by mixing 350 μl ethyl acetate with 15 μl of plasma sample and 35 μl of universal buffer containing internal standard at pH 8. The samples were vortexed for 1 min and centrifuged for 5 min, and the organic layer was then transferred and evaporated under a gentle stream of nitrogen at room temperature for 30 min. The dried samples were each reconstituted in the mobile phase, and a 5 μl sample was injected for LC-MS/MS analysis.
(§3) LC-MS/MS analysis. For all the artemisinins except the arylurea 10, gradient chromatography was performed on a Phenomenex (Torrance, CA, USA) Luna PFP(2) analytical column (100 Å, 5 μm, 2 by 50 mm) and an AB Sciex API 5500 mass spectrometer which was operated at unit resolution in the multiple reaction monitoring (MRM) mode. The HPLC method used was a gradient method with 5 mM ammonium acetate and 0.1% acetic acid in water as the aqueous phase and a mixture of acetonitrile and methanol (1:1 vol/vol) containing 5% of the aqueous phase as the organic phase ([89]). The arylurea 10 was analyzed using a Phenomenex Gemini NX-C18 (5 μm, 2.1 mm by 50 mm) column with an AB Sciex 3200 QTRAP mass spectrometer operated at unit resolution in the MRM mode. The HPLC method used was a gradient method with 5 mM ammonium acetate and 0.1% acetic acid in water as the aqueous phase and a mixture of acetonitrile and methanol (1:1 vol/vol). The transitions of the molecular ions were monitored, as listed in Table S8 in the supporting information. The calibration range was between 0.002 μg/ml and 6.250 μg/ml. Data acquisition and evaluation were performed using Analyst 1.6.2 software (Applied Biosystems, Foster City, CA, USA). The formation of the putative metabolite DHA from the amino-artemisinins and the metabolite M1 of artemisone were evaluated in these mice PK studies; the MRM transitions of DHA and M1 (Table S8) were thus included in the LC-MS/MS assays.

| Structure (SMILES) | Hepatic extraction ratio EH Rat |
| --- | --- |
| C[C@@H]1CC[C@H]2[C@@H](C)C(=O)N[C@@H]3O[C@@]4(C)CC[C@@H]1[C@]32OO4 [11-Aza-artemisinin 11, 11-aza-artemisinin] | 0.1 |
| C[C@H]1[C@@H](O)O[C@@H]2O[C@@]3(C)CC[C@H]4[C@H](C)CC[C@@H]1[C@@]24OO3 [DHA 2, dihydroartemisinin] | 0.4 |
| C[C@H]1[C@H](N2CCS(=O)(=O)CC2)O[C@@H]2O[C@@]3(C)CC[C@H]4[C@H](C)CC[C@@H]1[C@@]24OO3 [Artemisone 6, artemisone] | 0.9 |
| C[C@H]1[C@H](N2C=CS(=O)(=O)CC2)O[C@@H]2O[C@@]3(C)CC[C@H]4[C@H](C)CC[C@@H]1[C@@]24OO3 [M1 12] | 0.7 |
| C[C@H]1[C@H](N2CCSCC2)O[C@@H]2O[C@@]3(C)CC[C@H]4[C@H](C)CC[C@@H]1[C@@]24OO3 [Artemiside 5, artemiside] | 1.0 |
| CO[C@H]1O[C@@H]2O[C@@]3(C)CC[C@H]4[C@H](C)CC[C@@H]([C@H]1C)[C@@]24OO3 [Artemether 3, artemether] | 0.9 |
| C[C@H]1[C@H](NS(N)(=O)=O)O[C@@H]2O[C@@]3(C)CC[C@H]4[C@H](C)CC[C@@H]1[C@@]24OO3 [Sulfamide 7] | 0.4 |

Same assay, conditions: calculated, read-out: Intrinsic liver clearance rate CLint Rat

| Structure (SMILES) | CLint scaled [mL/min/kg] |
| --- | --- |
| C[C@@H]1CC[C@H]2[C@@H](C)C(=O)N[C@@H]3O[C@@]4(C)CC[C@@H]1[C@]32OO4 [11-Aza-artemisinin 11, 11-aza-artemisinin] | 9 |
| C[C@H]1[C@@H](O)O[C@@H]2O[C@@]3(C)CC[C@H]4[C@H](C)CC[C@@H]1[C@@]24OO3 [DHA 2, dihydroartemisinin] | 34.7 |
| C[C@H]1[C@H](N2CCS(=O)(=O)CC2)O[C@@H]2O[C@@]3(C)CC[C@H]4[C@H](C)CC[C@@H]1[C@@]24OO3 [Artemisone 6, artemisone] | 342 |
| C[C@H]1[C@H](N2C=CS(=O)(=O)CC2)O[C@@H]2O[C@@]3(C)CC[C@H]4[C@H](C)CC[C@@H]1[C@@]24OO3 [M1 12] | 108 |
| C[C@H]1[C@H](N2CCSCC2)O[C@@H]2O[C@@]3(C)CC[C@H]4[C@H](C)CC[C@@H]1[C@@]24OO3 [Artemiside 5, artemiside] | 1390 |
| CO[C@H]1O[C@@H]2O[C@@]3(C)CC[C@H]4[C@H](C)CC[C@@H]([C@H]1C)[C@@]24OO3 [Artemether 3, artemether] | 988 |
| C[C@H]1[C@H](NS(N)(=O)=O)O[C@@H]2O[C@@]3(C)CC[C@H]4[C@H](C)CC[C@@H]1[C@@]24OO3 [Sulfamide 7] | 32.9 |

Same assay, conditions: read-out: Microsomal half-life t1/2 Rat

| Structure (SMILES) | half-life [min] |
| --- | --- |
| C[C@@H]1CC[C@H]2[C@@H](C)C(=O)N[C@@H]3O[C@@]4(C)CC[C@@H]1[C@]32OO4 [11-Aza-artemisinin 11, 11-aza-artemisinin] | > 150 |
| C[C@H]1[C@@H](O)O[C@@H]2O[C@@]3(C)CC[C@H]4[C@H](C)CC[C@@H]1[C@@]24OO3 [DHA 2, dihydroartemisinin] | 90 |
| C[C@H]1[C@H](N2CCS(=O)(=O)CC2)O[C@@H]2O[C@@]3(C)CC[C@H]4[C@H](C)CC[C@@H]1[C@@]24OO3 [Artemisone 6, artemisone] | < 10 |
| C[C@H]1[C@H](N2C=CS(=O)(=O)CC2)O[C@@H]2O[C@@]3(C)CC[C@H]4[C@H](C)CC[C@@H]1[C@@]24OO3 [M1 12] | 28.8 |
| C[C@H]1[C@H](N2CCSCC2)O[C@@H]2O[C@@]3(C)CC[C@H]4[C@H](C)CC[C@@H]1[C@@]24OO3 [Artemiside 5, artemiside] | < 10 |
| CO[C@H]1O[C@@H]2O[C@@]3(C)CC[C@H]4[C@H](C)CC[C@@H]([C@H]1C)[C@@]24OO3 [Artemether 3, artemether] | < 10 |
| C[C@H]1[C@H](NS(N)(=O)=O)O[C@@H]2O[C@@]3(C)CC[C@H]4[C@H](C)CC[C@@H]1[C@@]24OO3 [Sulfamide 7] | 94.9 |

Assay: Plasma protein binding (ultracentrifugation)
Format: in vitro ADME
Conditions: pooled plasma, human plasma, read-out: Plasma protein binding fu
Protocol: (iii) Plasma protein binding. Plasma protein binding was measured using an ultracentrifugation method. The assay was performed using a 96-well microtiter plate with pooled human plasma spiked with the test compound (10 μM). […] This served as the total concentration sample. After preincubation at 37°C for 1 h, duplicate aliquots of the spiked plasma were transferred to ultracentrifugation tubes and ultracentrifuged for 4 h (216,937 × g, 37°C, Beckman Optima L-80XP). […] Sample extraction. […] LC-MS/MS analysis.

| Structure (SMILES) | fraction unbound at 4 h, 10 µM |
| --- | --- |
| C[C@@H]1CC[C@H]2[C@@H](C)C(=O)N[C@@H]3O[C@@]4(C)CC[C@@H]1[C@]32OO4 [11-Aza-artemisinin 11, 11-aza-artemisinin] | 0.13 |
| C[C@H]1[C@H](N2CCS(=O)(=O)CC2)O[C@@H]2O[C@@]3(C)CC[C@H]4[C@H](C)CC[C@@H]1[C@@]24OO3 [Artemisone 6, artemisone] | 0.14 |
| C[C@H]1[C@H](N2CCN(C(=O)Nc3ccc(F)cc3)CC2)O[C@@H]2O[C@@]3(C)CC[C@H]4[C@H](C)CC[C@@H]1[C@@]24OO3 [Arylurea 10] | 0.02 |
| C[C@H]1[C@H](N2C=CS(=O)(=O)CC2)O[C@@H]2O[C@@]3(C)CC[C@H]4[C@H](C)CC[C@@H]1[C@@]24OO3 [M1 12] | 0.25 |
| C[C@H]1[C@H](N2CCSCC2)O[C@@H]2O[C@@]3(C)CC[C@H]4[C@H](C)CC[C@@H]1[C@@]24OO3 [Artemiside 5, artemiside] | 0.23 |
| CO[C@H]1O[C@@H]2O[C@@]3(C)CC[C@H]4[C@H](C)CC[C@@H]([C@H]1C)[C@@]24OO3 [Artemether 3, artemether] | 0.14 |
| C[C@H]1[C@H](NS(N)(=O)=O)O[C@@H]2O[C@@]3(C)CC[C@H]4[C@H](C)CC[C@@H]1[C@@]24OO3 [Sulfamide 7] | 0.17 |

Assay: Metabolic stability in pooled human liver microsomes
Set-up: CLint scaled: dose or concentration left out as unconfirmed
Conditions: human liver microsomes
Protocol: as §1, §2, §3

| Structure (SMILES) | Stability in HLM | Hepatic extraction ratio EH Human |
| --- | --- | --- |
| C[C@@H]1CC[C@H]2[C@@H](C)C(=O)N[C@@H]3O[C@@]4(C)CC[C@@H]1[C@]32OO4 [11-Aza-artemisinin 11, 11-aza-artemisinin] | stable throughout the experiment |  |
| C[C@H]1[C@@H](O)O[C@@H]2O[C@@]3(C)CC[C@H]4[C@H](C)CC[C@@H]1[C@@]24OO3 [DHA 2, dihydroartemisinin] |  | 0.7 |
| C[C@H]1[C@H](N2CCS(=O)(=O)CC2)O[C@@H]2O[C@@]3(C)CC[C@H]4[C@H](C)CC[C@@H]1[C@@]24OO3 [Artemisone 6, artemisone] |  | 0.9 |
| C[C@H]1[C@H](N2CCN(C(=O)Nc3ccc(F)cc3)CC2)O[C@@H]2O[C@@]3(C)CC[C@H]4[C@H](C)CC[C@@H]1[C@@]24OO3 [Arylurea 10] |  | 0.6 |
| C[C@H]1[C@H](N2CCSCC2)O[C@@H]2O[C@@]3(C)CC[C@H]4[C@H](C)CC[C@@H]1[C@@]24OO3 [Artemiside 5, artemiside] |  | 1.0 |
| CO[C@H]1O[C@@H]2O[C@@]3(C)CC[C@H]4[C@H](C)CC[C@@H]([C@H]1C)[C@@]24OO3 [Artemether 3, artemether] |  | 0.9 |
| C[C@H]1[C@H](NS(N)(=O)=O)O[C@@H]2O[C@@]3(C)CC[C@H]4[C@H](C)CC[C@@H]1[C@@]24OO3 [Sulfamide 7] |  | 0.2 |

Same assay, conditions: human, microsomes

| Structure (SMILES) | half-life at 0.4 mM [min] |
| --- | --- |
| CO[C@H]1O[C@@H]2O[C@@]3(C)CC[C@H]4[C@H](C)CC[C@@H]([C@H]1C)[C@@]24OO3 [Artemether 3, artemether] | 12.5 |

Same assay, conditions: human, pooled liver microsomes

| Structure (SMILES) | half-life at 0.4 mM [min] | CLint scaled [mL/min/kg] |
| --- | --- | --- |
| C[C@@H]1CC[C@H]2[C@@H](C)C(=O)N[C@@H]3O[C@@]4(C)CC[C@@H]1[C@]32OO4 [11-Aza-artemisinin 11, 11-aza-artemisinin] | 60 |  |
| C[C@H]1[C@@H](O)O[C@@H]2O[C@@]3(C)CC[C@H]4[C@H](C)CC[C@@H]1[C@@]24OO3 [DHA 2, dihydroartemisinin] | 51.7 | 41.5 |
| C[C@H]1[C@H](N2CCS(=O)(=O)CC2)O[C@@H]2O[C@@]3(C)CC[C@H]4[C@H](C)CC[C@@H]1[C@@]24OO3 [Artemisone 6, artemisone] | < 10 | 243 |
| C[C@H]1[C@H](N2CCN(C(=O)Nc3ccc(F)cc3)CC2)O[C@@H]2O[C@@]3(C)CC[C@H]4[C@H](C)CC[C@@H]1[C@@]24OO3 [Arylurea 10] | < 10 | 531 |
| C[C@H]1[C@H](N2C=CS(=O)(=O)CC2)O[C@@H]2O[C@@]3(C)CC[C@H]4[C@H](C)CC[C@@H]1[C@@]24OO3 [M1 12] | > 150 |  |
| C[C@H]1[C@H](N2CCSCC2)O[C@@H]2O[C@@]3(C)CC[C@H]4[C@H](C)CC[C@@H]1[C@@]24OO3 [Artemiside 5, artemiside] | < 10 | 451 |
| CO[C@H]1O[C@@H]2O[C@@]3(C)CC[C@H]4[C@H](C)CC[C@@H]([C@H]1C)[C@@]24OO3 [Artemether 3, artemether] |  | 172 |
| C[C@H]1[C@H](NS(N)(=O)=O)O[C@@H]2O[C@@]3(C)CC[C@H]4[C@H](C)CC[C@@H]1[C@@]24OO3 [Sulfamide 7] | > 150 | 5.6 |
